Results published in patent US7579504B2, “ABCA1 elevating compounds” (Gilead Sciences, Inc., priority 2005, dated 2009).

Test system: ABCA1 mRNA
Assay: ABCA1 mRNA induction in THP-1 cells, QuantiGene branched DNA assay
Type: cell-based
Conditions: 18-20 hours; for fold induction at 10 µM: Homo sapiens, read-out: ABCA1 Induction Fold Increase over DMSO Vehicle; for ABCA1 Induction Fold Increase over DMSO Vehicle: 10 μM
Experimental: Modulation of expression of ABCA1 mRNA levels by the compounds of the invention was determined in the following assays.
Induction of ABC1 in THP-1 cells, was measured using QuantiGene® branched DNA assay as per manufacturer's instructions. Cultures of THP-1 were grown to subconfluence in DMEM/10% FBS before replacement with DMEM/BSA and 10 and 3 μM concentrations of the test compounds in DMSO for 18-20 hours. After treatment of cells with compounds, the cells were lysed with lysis buffer at 37° C. for 20 minutes. The cell lysate and ABCA1 specific probe (Genospectra, Inc., Fremont, Calif.) mix were added to the 96 well capture plate and hybridized at 53° C. for 16-18 hours. The signal was amplified using the amplifier and label probes provided with the QuantiGene® assay followed by addition of a luminescent alkaline phosphatase substrate, dioxitane. Luminescence was quantified in Victor V plate reader.
Step 1 • Cells are lysed to release mRNA in the presence of target probes. Target mRNA from lysed cells was then captured by hybridization and transferred to the Capture Plate.
Step 2 • Signal amplification was performed by hybridization of the bDNA Amplifier and Label Probe.
Step 3 • Addition of chemiluminescence substrate yielded a QuantiGene® signal proportional to the amount of mRNA present in the sample.
Table 1 presents the relative fold increase in ABCA1 expression over DMSO for compounds of the invention when tested at a concentration of 10 μM.

| Molecule | fold induction at 10 µM | ABCA1 Induction Fold Increase over DMSO Vehicle |
| --- | --- | --- |
| Cc1ccc(CNC(=O)C2CCC(CN(Cc3ccccc3)S(=O)(=O)c3cccc(F)c3)CC2)cc1 (stereo not drawn) [Compound 31, [4-({[(3-fluorophenyl)sulfonyl]benzylamino}methyl)cyclohexyl]-N-[(4-methylphenyl)methyl]carboxamide] | 6.7 | – |
| Cc1ccc(CNC(=O)C2CCC(CN(Cc3ccccc3)S(=O)(=O)c3ccc(Cl)cc3)CC2)cc1 (stereo not drawn) [Compound 44, [4-({[(4-chlorophenyl)sulfonyl]benzylamino}methyl)cyclohexyl]-N-[(4-methylphenyl)methyl]carboxamide] | 3.2 | – |
| Cc1ccc(CNC(=O)C2CCC(CN(Cc3ccccc3)S(=O)(=O)c3cccc(Cl)c3F)CC2)cc1 (stereo not drawn) [Compound 46, [4-({[(3-chloro-2-fluorophenyl)sulfonyl]benzylamino}methyl)cyclohexyl]-N-[(4-methylphenyl)methyl]carboxamide] | 4.5 | – |
| Cc1ccc(CNC(=O)C2CCC(CN(Cc3ccccc3)S(=O)(=O)c3ccc(F)c(F)c3)CC2)cc1 (stereo not drawn) [Compound 12, [4-({[(3,4-difluorophenyl)sulfonyl]benzylamino}methyl)cyclohexyl]-N-[(4-methylphenyl)methyl]carboxamide] | 2.6 | – |
| Cc1ccc(CNC(=O)C2CCC(CN(Cc3ccccc3)S(=O)(=O)c3cc(F)cc(F)c3)CC2)cc1 (stereo not drawn) [Compound 17, [4-({[(3,5-difluorophenyl)sulfonyl]benzylamino}methyl)cyclohexyl]-N-[(4-methylphenyl)methyl]carboxamide] | 4.5 | – |
| Cc1ccc(CNC(=O)C2CCC(CN(Cc3ccccc3)S(=O)(=O)c3ccc(F)cc3F)CC2)cc1 (stereo not drawn) [Compound 10, [4-({[(2,4-difluorophenyl)sulfonyl]benzylamino}methyl)cyclohexyl]-N-[(4-methylphenyl)methyl]carboxamide] | 2.2 | – |
| CC(=O)Nc1nc(C)c(S(=O)(=O)N(Cc2ccccc2)CC2CCC(C(=O)NCc3ccc(C)cc3)CC2)s1 (stereo not drawn) [Compound 30, N-[4-methyl-5-({[(4-{N-[(4-methylphenyl)methyl]carbamoyl}cyclohexyl)methyl]benzylamino}sulfonyl)-1,3-thiazol-2-yl]acetamide] | 3.9 | – |
| Cc1ccc(CNC(=O)C2CCC(CN(Cc3ccccc3)S(=O)(=O)c3ccc(Cl)cc3F)CC2)cc1 (stereo not drawn) [Compound 11, [4-({[(4-chloro-2-fluorophenyl)sulfonyl]benzylamino}methyl)cyclohexyl]-N-[(4-methylphenyl)methyl]carboxamide] | 1.9 | – |
| Cc1ccc(CNC(=O)C2CCC(CN(Cc3ccccc3)S(=O)(=O)c3c(C)cc(C)cc3C)CC2)cc1 (stereo not drawn) [Compound 34, N-[(4-methylphenyl)methyl][4-({benzyl[(2,4,6-trimethylphenyl)sulfonyl]amino}methyl)cyclohexyl]carboxamide] | 2.1 | – |
| Cc1ccc(CNC(=O)C2CCC(CN([C@H](C)c3ccccc3)S(=O)(=O)c3ccccc3)CC2)cc1 (stereo partly drawn) [Compound 5, (4-{[((1R)-1-phenylethyl)(phenylsulfonyl)amino]methyl}cyclohexyl)-N-[(4-methylphenyl)methyl]carboxamide] | 6.4 | – |
| Cc1ccc(CNC(=O)C2CCC(CN(Cc3ccccc3)S(=O)(=O)c3ccccc3F)CC2)cc1 (stereo not drawn) [Compound 21, [4-({[(2-fluorophenyl)sulfonyl]benzylamino}methyl)cyclohexyl]-N-[(4-methylphenyl)methyl]carboxamide] | 4.4 | – |
| Cc1ccc(CNC(=O)C2CCC(CN(Cc3ccccc3)S(=O)(=O)c3c(C)nn(C)c3C)CC2)cc1 (stereo not drawn) [Compound 47, N-[(4-methylphenyl)methyl][4-({benzyl[(1,3,5-trimethylpyrazol-4-yl)sulfonyl]amino}methyl)cyclohexyl]carboxamide] | 3.5 | – |
| Cc1ccc(CNC(=O)C2CCC(CN(Cc3cccc(F)c3F)S(=O)(=O)c3ccccc3)CC2)cc1 (stereo not drawn) [Compound 2, [4-({[(2,3-difluorophenyl)methyl](phenylsulfonyl)amino}methyl)cyclohexyl]-N-[(4-methylphenyl)methyl]carboxamide] | 6.3 | – |
| Cc1ccc(CNC(=O)C2CCC(CN(Cc3ccccc3)S(=O)(=O)c3ccccc3)CC2)cc1 (stereo not drawn) [Compound 4, N-[(4-methylphenyl)methyl](4-{[benzyl(phenylsulfonyl)amino]methyl}cyclohexyl)carboxamide] | 3.8 | – |
| Cc1ccc(CNC(=O)C2CCC(CN(Cc3ccc(F)cc3)S(=O)(=O)c3ccccc3)CC2)cc1 (stereo not drawn) [Compound 3, [4-({[(4-fluorophenyl)methyl](phenylsulfonyl)amino}methyl)cyclohexyl]-N-[(4-methylphenyl)methyl]carboxamide] | 4.8 | – |
| Cc1ccc(CNC(=O)C2CCC(CN(Cc3ccccc3)S(=O)(=O)c3c(F)cccc3F)CC2)cc1 (stereo not drawn) [Compound 29, [4-({[(2,6-difluorophenyl)sulfonyl]benzylamino}methyl)cyclohexyl]-N-[(4-methylphenyl)methyl]carboxamide] | 6.9 | – |
| N-[(4-methylphenyl)methyl](4-{[(naphthylsulfonyl)benzylamino]methyl}cyclohexyl)carboxamide [Compound 38] | – | 5.0 fold |
| Cc1ccc(CNC(=O)C2CCC(CN(Cc3ccccc3)S(=O)(=O)c3ccc(F)c(F)c3F)CC2)cc1 (stereo not drawn) [Compound 16, N-[(4-methylphenyl)methyl][4-({benzyl[(2,3,4-trifluorophenyl)sulfonyl]amino}methyl)cyclohexyl]carboxamide] | 1.9 | – |
| Cc1ccc(CNC(=O)C2CCC(CN(Cc3ccccc3)S(=O)(=O)c3ccc(C)cc3)CC2)cc1 (stereo not drawn) [Compound 43, N-[(4-methylphenyl)methyl][4-({[(4-methylphenyl)sulfonyl]benzylamino}methyl)cyclohexyl]carboxamide] | 5.4 | – |
| Cc1ccc(CNC(=O)[C@H]2CC[C@H](CN(Cc3ccccc3C)S(=O)(=O)c3ccccc3)CC2)cc1 [Compound 1, N-[(4-methylphenyl)methyl][4-({[(2-methylphenyl)methyl](phenylsulfonyl)amino}methyl)cyclohexyl]carboxamide] | 4.2 | – |
| {4-[({[4-(methylethyl)phenyl]sulfonyl}benzylamino)methyl]cyclohexyl}-N-[(4-methylphenyl)methyl]carboxamide [Compound 28] | – | 2.7 fold |
| Cc1ccc(CNC(=O)C2CCC(CN(Cc3ccccc3)S(=O)(=O)c3cccc(C(F)(F)F)c3)CC2)cc1 (stereo not drawn) [Compound 36, N-[(4-methylphenyl)methyl]{4-[(benzyl{[3-(trifluoromethyl)phenyl]sulfonyl}amino)methyl]cyclohexyl}carboxamide] | 2.7 | – |
| COc1ccc(S(=O)(=O)N(Cc2ccccc2)CC2CCC(C(=O)NCc3ccc(C)cc3)CC2)cc1 (stereo not drawn) [Compound 45, [4-({[(4-methoxyphenyl)sulfonyl]benzylamino}methyl)cyclohexyl]-N-[(4-methylphenyl)methyl]carboxamide] | 4.3 | – |
| Cc1ccc(CNC(=O)C2CCC(CN(Cc3ccccc3)S(=O)(=O)c3cc(C)cc(C)c3)CC2)cc1 (stereo not drawn) [Compound 23, [4-({[(3,5-dimethylphenyl)sulfonyl]benzylamino}methyl)cyclohexyl]-N-[(4-methylphenyl)methyl]carboxamide] | 4.1 | – |
